# Patent US12465584B2, “Agent for elevating nitric oxide concentration” (KYOWA HAKKO BIO CO., LTD., priority 2013, dated 2025)
# Where two headings read alike, the source gives them in different places.
# System: NOx concentration in blood
# Settings: male SD rats, blood over 4 hours after last administration, FIG. 1
structure (smiles),measurement,setting,value
"N[C@@H](CCC(=O)N[C@@H](CS)C(=O)NCC(=O)O)C(=O)O [glutathione, γ-L-Glu-L-Cys-Gly]",amount of increase in the NOx concentration in blood plasma from the baseline,"25 mg/kg/day reduced glutathione orally once a day for three days, compared to control group",same tendency
same,amount of increase in the NOx concentration in blood plasma from the baseline,"50 mg/kg/day reduced glutathione orally once a day for three days, compared to control group (P<0.05)",significantly increased
